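These data come from cells grown in 96-well plates and exposed to compound for 48 hours at five concentrations. TGI denotes the concentration required for complete inhibition of growth.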
Tests used:
Assay in all cases: NCI tumour cell line growth inhibition, 48 h
[1] = test system: DLD-1 colon
[2] = test system: DMS 114 small cell lung
[3] = test system: DMS 273 small cell lung
[4] = test system: HCT-15 colon
[5] = test system: KM20L2 colon
[6] = test system: LXFL 529 NSCLC
[7] = test system: M19-MEL melanoma
[8] = test system: SF-268 CNS
[9] = test system: SK-OV-3 ovarian
[10] = test system: SR leukemia
[11] = test system: SNB-78 CNS
[12] = test system: HOP-18 NSCLC
[13] = test system: XF 498 CNS
[14] = test system: RXF-631 renal

With `O=C1[C@H](Cl)[C@H]2c3cc4ccccc4nc3Oc3ccccc3N12` the TGI [1] was over 100 µM, the TGI [2] was 70.2 µM and the TGI [3] was over 100 µM. For the same molecule, the TGI [4] was over 100 µM, the TGI [5] was over 100 µM and the TGI [6] was over 100 µM. It also gave a TGI [7] of over 100 µM, a TGI [8] of over 100 µM and a TGI [9] of over 100 µM. The TGI [10] was over 100 µM.

With `O=C(O)CC1CC=C[C@H]2c3cc4c(cc3C(=O)NC12)OCO4` (some centres undefined) the TGI [1] was over 75 µM, the TGI [2] was over 75 µM and the TGI [3] was over 75 µM. For the same molecule, the TGI [4] was over 75 µM, the TGI [5] was over 75 µM and the TGI [6] was over 75 µM. For the same molecule, the TGI [7] was over 75 µM, the TGI [8] was over 75 µM and the TGI [9] was over 75 µM. It also gave a TGI [11] of over 75 µM and a TGI [10] of over 75 µM.

For `CC(=O)ON(C(C)=O)C1C(COC(c2ccccc2)(c2ccccc2)c2ccccc2)OC2OC3(CCCC3)OC21` (centres undefined), the TGI [1] was over 100 µM, the TGI [2] was over 100 µM and the TGI [3] was over 100 µM. It also gave a TGI [4] of over 100 µM, a TGI [12] of over 100 µM and a TGI [5] of over 100 µM. The TGI [7] was over 100 µM, the TGI [8] was over 100 µM and the TGI [9] was over 100 µM. For the same molecule, the TGI [10] was over 100 µM and the TGI [13] was over 100 µM.

`CC(=N)N(C)O` was tested, and the TGI [1] was over 100 µM, the TGI [2] was 33.2 µM and the TGI [4] was 42.9 µM. For the same molecule, the TGI [12] was over 100 µM, the TGI [5] was over 100 µM and the TGI [6] was over 100 µM. For the same molecule, the TGI [7] was over 100 µM, the TGI [14] was over 100000 nM and the TGI [8] was over 100 µM. It also gave a TGI [9] of over 100 µM, a TGI [11] of over 100 µM and a TGI [10] of 68.4 µM. It also gave a TGI [13] of over 100 µM.

`CN(O)C(=S)c1ccccc1` gave a TGI [1] of 4.52 µM, a TGI [2] of 4.12 µM and a TGI [3] of 4.03 µM. For the same molecule, the TGI [4] was 37.6 µM, the TGI [12] was over 100 µM and the TGI [5] was over 100 µM. The TGI [6] was over 23 µM, the TGI [7] was 4.68 µM and the TGI [14] was 2920 nM. It also gave a TGI [8] of over 100 µM, a TGI [9] of over 95.5 µM and a TGI [11] of over 100 µM. It also gave a TGI [13] of over 100 µM.

For `CC1=NN(C(=O)c2ccc(Cl)cc2)C(=O)/C1=C/c1ccco1`, the TGI [1] was over 100 µM, the TGI [2] was over 100 µM and the TGI [4] was over 100 µM. It also gave a TGI [5] of over 100 µM, a TGI [6] of over 100 µM and a TGI [7] of over 100 µM. It also gave a TGI [8] of over 100 µM, a TGI [9] of over 100 µM and a TGI [11] of over 100 µM. For the same molecule, the TGI [13] was over 100 µM.

Molecule `COc1ccc2c(-c3ccc(O)cc3)c(Oc3ccc(Cl)cc3)c(=O)oc2c1` has a TGI [4] of 17.6 µM, a TGI [8] of 24.6 µM and a TGI [9] of 44.9 µM. The TGI [10] was over 28.5 µM.

In the case of `Cc1c(-c2ccccc2)c(C#N)c2nnn(-c3cccc(Cl)c3)c(=O)n12`, the TGI [4] is reported as over 100 µM, the TGI [8] is reported as over 100 µM and the TGI [9] is reported as over 100 µM. The TGI [10] was over 100 µM.

`COC(=O)C1C(C(=O)OC)C1(Br)CBr` (centres undefined) was tested, and the TGI [4] was 38.7 µM, the TGI [8] was over 100 µM and the TGI [9] was over 100 µM. It also gave a TGI [10] of 46.8 µM.

`CC1OC(O[C@H]2CC[C@]3(C=O)[C@H]4CC[C@]5(C)[C@H](C6=CC(=O)OC6)CC[C@]5(O)[C@@H]4C=C[C@]3(O)C2)CC(O)C1O` (some centres undefined) was tested, and the TGI [4] was 0.62 µM, the TGI [8] was 0.589 µM and the TGI [9] was 1.02 µM. The TGI [10] was 0.682 µM.

For `CC(=O)Oc1c2oc3cc(O)c(O)cc3c2c(OC(C)=O)c2oc3cc(O)c(O)cc3c12`, the TGI [4] was 72.3 µM, the TGI [8] was 51 µM and the TGI [9] was 59.4 µM. For the same molecule, the TGI [10] was over 100 µM.

For `COCCOCCOCCOc1ccc(C(C#N)N(CCc2ccccc2)C(=O)c2cc(C(=O)N(CCc3ccccc3)C(C#N)c3ccc(OCCOCCOCCOC)cc3)cc(C(=O)N(CCc3ccccc3)C(C#N)c3ccc(OCCOCCOCCOC)cc3)c2)cc1` (centres undefined), the TGI [4] was over 100 µM, the TGI [8] was over 100 µM and the TGI [9] was over 100 µM. It also gave a TGI [10] of over 100 µM.

In the case of `CC(=O)Nc1ccc2cc3[nH]c4cc(NC(C)=O)ccc4c3nc2c1`, the TGI [4] is reported as over 100 µM, the TGI [8] is reported as over 100 µM and the TGI [9] is reported as over 100 µM. The TGI [10] was over 100 µM.

`Cc1cc2c(cc1C)C(=O)/C(=N/Nc1ccc(F)cc1)CCO2` showed a TGI [4] of over 100 µM, a TGI [8] of over 100 µM and a TGI [9] of over 100 µM. The TGI [10] was over 100 µM.

Molecule `COc1ccc(Nc2nc3ccccc3nc2C(=O)O)cc1OC` has a TGI [4] of over 100 µM, a TGI [8] of over 100 µM and a TGI [9] of over 100 µM. For the same molecule, the TGI [10] was over 100 µM.

`Cc1ccc(C)n1-n1c(-c2ccccc2)n[nH]c1=O` showed a TGI [4] of over 100 µM, a TGI [8] of over 100 µM and a TGI [9] of over 100 µM. For the same molecule, the TGI [10] was over 100 µM.

`CCC1=NC(C(F)(F)F)(C(F)(F)F)N=C(/N=C(/N)N(C)C(C(C)C)P(=O)(OC(C)C)OC(C)C)O1` (centres undefined) was tested, and the TGI [4] was over 100 µM, the TGI [8] was over 100 µM and the TGI [9] was over 100 µM. It also gave a TGI [10] of over 100 µM.

`CN(C)c1ccc(C(=NN)c2ccc(N(C)C)cc2)cc1` was tested, and the TGI [4] was over 40.9 µM, the TGI [8] was over 100 µM and the TGI [9] was over 85.5 µM. For the same molecule, the TGI [10] was over 100 µM.

Molecule `COc1ccc(N2C(=O)/C(=C\c3cccc(Oc4ccccc4)c3)SC2c2ccccc2)cc1` (centres undefined) has a TGI [4] of over 100 µM, a TGI [8] of over 100 µM and a TGI [9] of over 100 µM. The TGI [10] was 59.2 µM.

`O=C1NC(S(=O)(=O)O)=NNC12c1ccccc1-c1ccccc12` showed a TGI [4] of over 10 µM, a TGI [8] of over 10 µM and a TGI [9] of over 10 µM. The TGI [10] was over 10 µM.

Work on `Oc1ccc(-c2cn3cc(C(F)(F)F)ccc3n2)cc1` yielded a TGI [4] of over 100 µM, a TGI [8] of over 100 µM and a TGI [9] of over 100 µM. For the same molecule, the TGI [10] was over 100 µM.

Work on `CCOC(=O)NC(=S)c1ccc(O)c2ccccc12` yielded a TGI [4] of over 100 µM, a TGI [8] of over 100 µM and a TGI [9] of over 100 µM. It also gave a TGI [10] of over 100 µM.

Molecule `O=C(CCOS(=O)(=O)CF)N1CCN(C(=O)CCOS(=O)(=O)CF)CC1` has a TGI [4] of over 100 µM, a TGI [8] of over 100 µM and a TGI [9] of over 82.5 µM. The TGI [10] was over 100 µM.

Work on `CC(NC(NC(C)C12CC3CC(CC(C3)C1)C2)=C(C(Cl)=C(Cl)Cl)[N+](=O)[O-])C12CC3CC(CC(C3)C1)C2` (centres undefined) yielded a TGI [4] of over 100 µM, a TGI [8] of over 59.5 µM and a TGI [9] of over 100 µM. For the same molecule, the TGI [10] was over 100 µM.

In the case of `O=C1C(Cl)=C(N2CCN(c3ccccn3)CC2)C(=O)c2ncccc21`, the TGI [4] is reported as 3.12 µM, the TGI [8] is reported as 8.17 µM and the TGI [9] is reported as 20.6 µM. For the same molecule, the TGI [10] was 3.2 µM.
